# “Also recorded” adds a separate entry of the source. Structures can show the parent of a compound that is named as a salt.
# What was measured:
# [1] = system: BV-2 cells; assay: AhR blockade of metabolite-induced changes in BV-2 microglia; format: cell-based, mouse; settings: metabolite cocktail 32 ug/mL each plus CH223191 5 uM, 5 days
# Protocol: FIG. 28. […] Results of AhR blockade on metabolite-induced proliferation and cell surface profile changes in BV-2 microglia. BV-2 cells were treated with vehicle (DMSO), metabolite cocktail (32 ug/mL of each metabolite), or metabolite cocktail with the AhR inhibitor CH223191 (5 uM final concentration in DMSO) for 5 days before performing the same analysis as in slide 5 (CSF1R and F4/80 or Ki67 staining). While the increase in F4/80 and CSF1R intensity is dependent on intact AhR signaling (top row), AhR signaling is dispensable for metabolite-induced proliferation (bottom row). Each bar is the average of 4 separate wells+/−SEM. P-vales calculated using two-way ANOVA.
# [2] = system: BV-2 cells; assay: BV-2 phagocytosis assay with apoptotic N2A bait cells (CypHer5); format: cell-based, mouse; settings: metabolite cocktail plus CH223191 5 uM
# Source text: FIG. 32. Outline of phagocytosis assay in BV-2 cells. Briefly, apoptotic N2A cells (“bait”) are generated by UV irradiation and loaded with the pH sensitive dye CypHer5 before co-culture with Hoechst stained BV-2 cells. After washing, BV-2 cells are the collected and analyzed by flow cytometry.
# FIG. 33. […] Each bar is the average of 4 separate wells +/−SEM. P-vales calculated using two-way ANOVA.
# Finally, we asked whether treatment with metabolites altered the ability of BV-2 microglia to engulf apoptotic N2A cells as outlined above. In this assay the phagocytes (in this case BV-2 cells) are treated with metabolites or vehicle for 120 h and then loaded with Hoechest dye. N2A cells are killed with UV radiation (confirmed by staining with viability dyes and Annexin V to distinguish apoptotic from necrotic cells) and then loaded with the pH sensitive dye CypHer5 which only fluoresces in the phagolysosome. They are then fed to BV-2 cells for a predetermined length of time (5:1 ratio of N2A to BV-2, 1 h of eating) before being harvested and analyzed by flow cytometry (FIG. 32).
# [3] = system: BV-2 immortalized mouse microglia; assay: Metabolite time course in BV-2 microglia (Ki67 proliferation, CSF1R and F4/80 surface staining); format: cell-based; settings: BV-2 cells, 32 ug/mL of each compound; for proliferation (percent Ki67+ cells): 5 days (120 h); for CSF1R cell surface staining intensity (MFI) / F4/80 cell surface staining intensity (MFI): 5 days
# Protocol: FIG. 26. Representation of the outline of metabolite time course experiment utilizing BV-2 immortalized mouse microglia. BV-2 cells are plated with either media alone, or with a cocktail of the 4 metabolites identified in slide 1 at a final concentration of 32 ug/mL of each compound at the indicated time points. Cells are then harvested and stained using conventional methods for either cell surface markers or the proliferation marker Ki67.
# FIG. 27. Metabolite treatment increases proliferative capacity and alters the cell surface profile of BV-2 cells. Results of metabolite time course in BV-2 cells. […] Each bar is the average of 4 separate wells+/−SEM. P-vales calculated using two-way ANOVA.
# FIG. 29. […] In order to test the ability of the AhR ligand indoxyl sulfate in BV-2 microglia, cells were treated for 5 days with either a cocktail of metabolites or with indoxyl sulfate (32 ug/mL of all compounds tested). […] Each bar is the average of 4 separate wells+/−SEM. P-vales calculated using two-way ANOVA.
# Purified cultures, or immortalized equivalents were used. The cells were treated with a cocktail of the 4 metabolites to evaluate microglial response to metabolite treatment (FIG. 26). […] There is a relatively linear effect with increasing proportions of proliferation or F4/80, CSF1R high cells with increasing exposure to the metabolite cocktail.
# We next asked if individual metabolites were responsible for the biological activity of the metabolite cocktail or whether multiple metabolites were required.
smiles,measurement,setting,value
Cc1ccccc1N=Nc1ccc(NC(=O)c2ccnn2C)c(C)c1 [CH223191],metabolite-induced increase in CSF1R intensity under AhR inhibition,[1],required for the upregulation of CSF1R and F4/80; also recorded: reduces metabolite induced changes in surface markers
same,metabolite-induced increase in F4/80 intensity under AhR inhibition,[1],required for the upregulation of CSF1R and F4/80; also recorded: reduces metabolite induced changes in surface markers
same,metabolite-induced proliferation (Ki67) under AhR inhibition,[1],dispensable for enhancement of proliferation; also recorded: does not change proliferation
same,metabolite-induced phagocytosis under AhR inhibition,[2],significance is abolished
same,metabolite-induced phagocytosis under AhR inhibition,[2]; listed as Met+CH,NOT dependent on AhR signaling
O=S(=O)(O)Oc1c[nH]c2ccccc12 [indoxyl sulfate],proliferation (percent Ki67+ cells),[3],nor does it increase the proliferative capacity
same,proliferation (percent Ki67+ cells),[3]; listed as IS,unable to significantly change either cell surface levels of F4/80 or CSF1R or to increase proliferation
same,CSF1R cell surface staining intensity (MFI),[3],does not increase CSF1R or F4/80 protein staining intensity
same,F4/80 cell surface staining intensity (MFI),[3],does not increase CSF1R or F4/80 protein staining intensity
same,CSF1R cell surface staining intensity (MFI),[3]; listed as IS,unable to significantly change
same,F4/80 cell surface staining intensity (MFI),[3]; listed as IS,unable to significantly change
